Experiments:
Format in all cases: in vivo
Septoria tritici = test: Test C: preventive spray on wheat seedlings, Septoria tritici (wheat leaf blotch), visual disease rating; settings: 100 = 100% disease control, 0 = no control, unmarked values
Text: (§1) General protocol for preparing test suspensions for Tests A-E: the test compounds were first dissolved in acetone in an amount equal to 3% of the final volume and then suspended at the desired concentration (in ppm) in acetone and purified water (50/50 mix by volume) containing 250 ppm of the surfactant Trem® 014 (polyhydric alcohol esters). The resulting test suspensions were then used in Tests A-E. Compounds were sprayed with either a 40 ppm or 10 ppm (*) test suspension to the point of run-off on the test plants which is the equivalent of a rate of 160 g ai/ha or 40 g ai/ha, respectively.
(§2) The test suspension was sprayed to the point of run-off on wheat seedlings. The following day the seedlings were inoculated with a spore suspension of Septoria tritici (the causal agent of wheat leaf blotch) and incubated in a saturated atmosphere at 24° C. for 48 h, and then moved to a growth chamber at 20° C. for 21 days, after which time visual disease ratings were made.
(§3) Results for Tests A-E are given in Table A. In the Table, a rating of 100 indicates 100% disease control and a rating of 0 indicates no disease control (relative to the controls). A dash (-) indicates no test results.

[1] = test system: Erysiphe graminis f. sp. tritici; test: Test E: preventive spray on wheat seedlings, Erysiphe graminis f. sp. tritici (wheat powdery mildew), visual disease rating; settings: 100 = 100% disease control, 0 = no control, unmarked values
Text: as §1
The test suspension was sprayed to the point of run-off on wheat seedlings. The following day the seedlings were inoculated with a spore dust of Erysiphe graminis f. sp. tritici, (the causal agent of wheat powdery mildew) and incubated in a growth chamber at 20° C. for 8 days, after which time visual disease ratings were made.
as §3

Botrytis cinerea = test: Test A: preventive spray on tomato seedlings, Botrytis cinerea (gray mold), visual disease rating; settings: 100 = 100% disease control, 0 = no control relative to controls, unmarked values
Text: as §1
The test suspension was sprayed to the point of run-off on tomato seedlings. The following day the seedlings were inoculated with a spore suspension of Botrytis cinerea (the causal agent of gray mold on many crops) and incubated in a saturated atmosphere at 20° C. for 48 h, and moved to a growth chamber at 27° C. for 2 days, after which time visual disease ratings were made.
as §3

[2] = test system: Puccinia recondite f. sp. tritici; test: Test D: preventive spray on wheat seedlings, Puccinia recondite f. sp. tritici (wheat leaf rust), visual disease rating; settings: 100 = 100% disease control, 0 = no control, unmarked values
Text: as §1
as §2, with “Puccinia recondite f. sp. tritici;” for “Septoria tritici”, “rust)” for “blotch)”, “20°” for “24°”, “24” for “48”, “6” for “21”
as §3

[3] = test system: Stagonospora nodorum (also known as Septoria nodorum); test: Test B: preventive spray on wheat seedlings, Stagonospora nodorum (wheat glume blotch), visual disease rating; settings: 100 = 100% disease control, 0 = no control, unmarked values
Text: as §1
The test suspension was sprayed to the point of run-off on wheat seedlings. The following day the seedlings were inoculated with a spore suspension of Stagonospora nodorum (also known as Septoria nodorum; the causal agent of wheat glume blotch) and incubated in a saturated atmosphere at 20° C. for 48 h, and then moved to a growth chamber at 20° C. for 6 days, after which time visual disease ratings were made.
as §3

| Compound | Test C disease control rating (Septoria tritici) | Test E disease control rating [1] | Test A disease control rating (Botrytis cinerea) | Test D disease control rating [2] | Test B disease control rating [3] |
| --- | --- | --- | --- | --- | --- |
| 3-(trifluoromethyl)-N-[2-[6-[3-(trifluoromethyl)-1H-pyrazol-1-yl]-3-pyridazinyl]phenyl]-2-pyridinecarboxamide [Compound 59] | 100% | 99% | 100% | 100% | 100% |
| O=C(Nc1ccccc1-c1ccc(C2=NOC(c3ccc(F)cc3)C2)nc1)c1ncccc1C(F)(F)F (racemic) [compound 6] | 99% | 0% | 99% | 100% | 100% |
| O=C(Nc1ccccc1-c1ccc(C2=NOC(c3cccc(F)c3)C2)nc1)c1ncccc1C(F)(F)F (racemic) [compound 17] | 100% | 0% | 98% | 99% | 100% |
| COc1cccc(C2CC(c3ccc(-c4ccccc4NC(=O)c4ncccc4C(F)(F)F)cn3)=NO2)c1 (racemic) [compound 18] | 100% | 0% | 96% | 99% | 100% |
| O=C(Nc1ccccc1-c1ccc(C2=NOC(c3cc(F)cc(F)c3)C2)nc1)c1ncccc1C(F)(F)F (racemic) [compound 19] | 100% | 87% | 98% | 100% | 100% |
| COc1cc(OC)cc(C2CC(c3ccc(-c4ccccc4NC(=O)c4ncccc4C(F)(F)F)cn3)=NO2)c1 (racemic) [compound 20] | 96% | 0% | 89% | 99% | 100% |
| Cn1cc(C(=O)Nc2ccccc2-c2ccc(-n3cc(-c4cccc(F)c4)cn3)nc2)c(C(F)F)n1 [compound 5] | 100% | 99% | 100% | 100% | 100% |
| Cn1cc(C(=O)Nc2ccccc2-c2ccc(-n3cc(-c4ccccc4F)cn3)nc2)c(C(F)F)n1 [compound 7] | 100% | 97% | 100% | 100% | 100% |
| COc1ccccc1-c1cnn(-c2ccc(-c3ccccc3NC(=O)c3cn(C)nc3C(F)F)cn2)c1 [compound 8] | 99% | 99% | 99% | 100% | 99% |
| COc1cccc(-c2cnn(-c3ccc(-c4ccccc4NC(=O)c4cn(C)nc4C(F)F)cn3)c2)c1 [compound 9] | 100% | 100% | 100% | 100% | 100% |
| COc1cc(OC)cc(-c2cnn(-c3ccc(-c4ccccc4NC(=O)c4cn(C)nc4C(F)F)cn3)c2)c1 [compound 10] | 100% | 97% | 100% | 100% | 100% |
| Cn1cc(C(=O)Nc2ccccc2-c2ccc(-n3ccc(Br)n3)nc2)c(C(F)F)n1 [compound 11] | 100% | 99% | 100% | 100% | 100% |
| O=C(Nc1ccccc1-c1ccc(-n2ccc(Br)n2)nc1)c1ncccc1C(F)(F)F [compound 13] | 100% | 99% | 98% | 100% | 98% |
| Cc1ccc(-c2ccc(-c3ccccc3NC(=O)c3cn(C)nc3C(F)F)cn2)s1 [compound 21] | 81% | 43% | 99% | 100% | 97% |
